Reference: ChEMBL document CHEMBL5370592, “Synthesis and Structure-Activity Relationships of a New Class of Oxadiazoles Targeting DprE1 as Antitubercular Agents” (ACS Med Chem Lett, 2023)

Tests used:
Type in all cases: functional
[1] = tested on: Mycobacterium tuberculosis; assay: Antitubercular activity against ethambutol/D-cycloserine-resistant Mycobacterium tuberculosis NIH_G11R assessed as inhibition of bacterial growth incubated for 2 weeks; conditions: 336 h
[2] = tested on: Mycobacterium tuberculosis; assay: Antitubercular activity against ethionamide-resistant Mycobacterium tuberculosis NIH_G145 assessed as inhibition of bacterial growth incubated for 2 weeks; conditions: NIH_G145, 336 h
[3] = tested on: Mycobacterium tuberculosis; assay: Antitubercular activity against streptomycin/D-cycloserine-resistant Mycobacterium tuberculosis NIH_G169 assessed as inhibition of bacterial growth incubated for 2 weeks; conditions: NIH_G169, 336 h
[4] = tested on: Mycobacterium tuberculosis; assay: Antitubercular activity against isoniazid/ethionamide/D-cycloserine-resistant Mycobacterium tuberculosis NIH_G17R assessed as inhibition of bacterial growth incubated for 2 weeks; conditions: 336 h
[5] = tested on: Mycobacterium tuberculosis; assay: Antitubercular activity against isoniazid/ofloxacin/prothionamide-resistant Mycobacterium tuberculosis NIH1B127 assessed as inhibition of bacterial growth incubated for 2 weeks; conditions: NIH1B127, 336 h
[6] = tested on: Mycobacterium tuberculosis; assay: Antitubercular activity against isoniazid/rifampicin/streptomycin-resistant Mycobacterium tuberculosis clinical strain 01291696 assessed as inhibition of bacterial growth incubated for 2 weeks; conditions: Mycobacterium tuberculosis, 01291696, 336 h
[7] = tested on: Mycobacterium tuberculosis; assay: Antitubercular activity against isoniazid/rifampicin/ethambutol/rifabutin-resistant Mycobacterium tuberculosis K18b01MR assessed as inhibition of bacterial growth incubated for 2 weeks; conditions: 336 h
[8] = tested on: Mycobacterium tuberculosis; assay: Antitubercular activity against isoniazid/rifampicin/ethambutol/streptomycin-resistant Mycobacterium tuberculosis K21b00MR assessed as inhibition of bacterial growth incubated for 2 weeks; conditions: 336 h
[9] = tested on: Mycobacterium tuberculosis; assay: Antitubercular activity against isoniazid/rifampicin/ethambutol/rifabutin-resistant Mycobacterium tuberculosis K22b00MR assessed as inhibition of bacterial growth incubated for 2 weeks; conditions: 336 h
[10] = tested on: Mycobacterium tuberculosis; assay: Antitubercular activity against isoniazid/rifampicin/ethambutol/pyrazinamid/rifabutin/prothionamide-resistant Mycobacterium tuberculosis K25b00MR assessed as inhibition of bacterial growth incubated for 2 weeks; conditions: 336 h
[11] = tested on: Mycobacterium tuberculosis; assay: Antitubercular activity against isoniazid/rifampicin/ethambutol/pyrazinamid/rifabutin-resistant Mycobacterium tuberculosis K26b00MR assessed as inhibition of bacterial growth incubated for 2 weeks; conditions: 336 h
[12] = tested on: Mycobacterium tuberculosis; assay: Antitubercular activity against isoniazid/rifampicin/streptomycin/para-aminosalicylic acid/ofloxacin-resistant Mycobacterium tuberculosis K29b00MR assessed as inhibition of bacterial growth incubated for 2 weeks; conditions: 336 h
[13] = tested on: Mycobacterium tuberculosis; assay: Antitubercular activity against isoniazid/rifampicin/ethambutol/rifabutin-resistant Mycobacterium tuberculosis NIH_G10R assessed as inhibition of bacterial growth incubated for 2 weeks; conditions: 336 h
[14] = tested on: Mycobacterium tuberculosis; assay: Antitubercular activity against isoniazid/rifampicin/ethambutol/streptomycin/D-cycloserine/rifabutin-resistant Mycobacterium tuberculosis NIH_G19R assessed as inhibition of bacterial growth incubated for 2 weeks; conditions: 336 h
[15] = tested on: Mycobacterium tuberculosis; assay: Antitubercular activity against isoniazid/rifampicin/ethambutol/pyrazinamide/streptomycin/kanamycin-resistant Mycobacterium tuberculosis K20b00MR assessed as inhibition of bacterial growth incubated for 2 weeks; conditions: 336 h
[16] = tested on: Mycobacterium tuberculosis; assay: Antitubercular activity against isoniazid/rifampicin/kanamycin/pyrazinamide/capreomycin/amikacin/prothionamide/D-cycloserine-resistant Mycobacterium tuberculosis K32b00MR assessed as inhibition of bacterial growth incubated for 2 weeks; conditions: 336 h
[17] = tested on: Mycobacterium tuberculosis; assay: Antitubercular activity against isoniazid/rifampicin/ethambutol/pyrazinamide/streptomycin/kanamycin/para-aminosalicylic acid/prothionamide-resistant Mycobacterium tuberculosis K33b00MR assessed as inhibition of bacterial growth incubated for 2 weeks; conditions: 336 h
[18] = tested on: Mycobacterium tuberculosis; assay: Antitubercular activity against isoniazid/rifampicin/ethambutol/para-aminosalicylic acid/kanamycin/ofloxacin/prothionamide-resistant Mycobacterium tuberculosis Kb019 assessed as inhibition of bacterial growth incubated for 2 weeks; conditions: Kb019, 336 h
[19] = tested on: Mycobacterium tuberculosis; assay: Antitubercular activity against extensively drug-resistant Mycobacterium tuberculosis 026K111 assessed as inhibition of bacterial growth incubated for 2 weeks; conditions: 026K111, 336 h
[20] = tested on: Mycobacterium tuberculosis; assay: Antitubercular activity against extensively drug-resistant Mycobacterium tuberculosis 028K111 assessed as inhibition of bacterial growth incubated for 2 weeks; conditions: 028K111, 336 h
[21] = tested on: Mycobacterium tuberculosis; assay: Antitubercular activity against extensively drug-resistant Mycobacterium tuberculosis clinical strain 00202293 assessed as inhibition of bacterial growth incubated for 2 weeks; conditions: Mycobacterium tuberculosis, 00202293, 336 h
[22] = tested on: Mycobacterium tuberculosis; assay: Antitubercular activity against extensively drug-resistant Mycobacterium tuberculosis clinical strain X37b00XR assessed as inhibition of bacterial growth incubated for 2 weeks; conditions: 336 h
[23] = tested on: Mycobacterium tuberculosis; assay: Antitubercular activity against isoniazid/ethionamide-resistant Mycobacterium tuberculosis NIH1B21 assessed as inhibition of bacterial growth incubated for 2 weeks; conditions: NIH1B21, 336 h
[24] = tested on: Mycobacterium tuberculosis; assay: Antitubercular activity against isoniazid/ethambutol/prothionamide/D-cycloserine/ofloxacin/levofloxacin/pyrazinamide-resistant Mycobacterium tuberculosis NIH1B314 assessed as inhibition of bacterial growth incubated for 2 weeks; conditions: NIH1B314, 336 h
[25] = tested on: Mycobacterium tuberculosis; assay: Antitubercular activity against isoniazid/prothionamide-resistant Mycobacterium tuberculosis NIHA38 assessed as inhibition of bacterial growth incubated for 2 weeks; conditions: NIHA38, 336 h
[26] = tested on: Mycobacterium tuberculosis; assay: Antitubercular activity against isoniazid/prothionamide-resistant Mycobacterium tuberculosis NIHB140 assessed as inhibition of bacterial growth incubated for 2 weeks; conditions: NIHB140, 336 h
[27] = tested on: Mycobacterium tuberculosis; assay: Antitubercular activity against rifampicin/isoniazid/streptomycin/prothionamide-resistant Mycobacterium tuberculosis NIHB43 assessed as inhibition of bacterial growth incubated for 2 weeks; conditions: NIHB43, 336 h
[28] = tested on: Mycobacterium tuberculosis; assay: Antitubercular activity against isonizaid/rifampicin/ethambutol/rifabutin/D-cycloserine-resistant Mycobacterium tuberculosis NIH_G21R assessed as inhibition of bacterial growth incubated for 2 weeks; conditions: 336 h
[29] = tested on: Mycobacterium tuberculosis; assay: Antitubercular activity against isonizaid/rifampicin/ethambutol/rifabutin-resistant Mycobacterium tuberculosis NIH_G22R assessed as inhibition of bacterial growth incubated for 2 weeks; conditions: 336 h
[30] = tested on: Mycobacterium tuberculosis; assay: Antitubercular activity against isonizaid/rifampicin/ethambutol/rifabutin-resistant Mycobacterium tuberculosis NIH_G269DR assessed as inhibition of bacterial growth incubated for 2 weeks; conditions: 336 h
[31] = tested on: Mycobacterium tuberculosis; assay: Antitubercular activity against isonizaid/rifampicin/streptomycin/ethionamide-resistant Mycobacterium tuberculosis NIH_G79 assessed as inhibition of bacterial growth incubated for 2 weeks; conditions: NIH_G79, 336 h
[32] = tested on: Mycobacterium tuberculosis; assay: Antitubercular activity against isonizaid/rifampicin/rifabutin-resistant Mycobacterium tuberculosis NIHA37 assessed as inhibition of bacterial growth incubated for 2 weeks; conditions: NIHA37, 336 h
[33] = tested on: Mycobacterium tuberculosis; assay: Antitubercular activity against isonizaid/rifampicin/ethionamide/prothionamide-resistant Mycobacterium tuberculosis NIHA48 assessed as inhibition of bacterial growth incubated for 2 weeks; conditions: NIHA48, 336 h
[34] = tested on: Mycobacterium tuberculosis; assay: Antitubercular activity against isoniazid/rifampicin/ethambutol/pyrazinamide/rifabutin/prothionamide-resistant Mycobacterium tuberculosis NIHB302 assessed as inhibition of bacterial growth incubated for 2 weeks; conditions: NIHB302, 336 h
[35] = tested on: Mycobacterium tuberculosis; assay: Antitubercular activity against isoniazid/rifampicin/para-aminosalicylic acid/ofloxacin/prothionamide-resistant Mycobacterium tuberculosis NIHB67 assessed as inhibition of bacterial growth incubated for 2 weeks; conditions: NIHB67, 336 h
[36] = tested on: Mycobacterium tuberculosis; assay: Antitubercular activity against isoniazid/rifampicin/para-aminosalicylic acid/pyrazinamide/prothionamide/rifabutin-resistant Mycobacterium tuberculosis NIHB68 assessed as inhibition of bacterial growth incubated for 2 weeks; conditions: NIHB68, 336 h
[37] = tested on: Mycobacterium tuberculosis; assay: Antitubercular activity against isoniazid/rifampicin/moxifloxacin-resistant Mycobacterium tuberculosis NIH_G367DR assessed as inhibition of bacterial growth incubated for 2 weeks; conditions: 336 h
[38] = tested on: Mycobacterium tuberculosis; assay: Antitubercular activity against isoniazid/rifampicin/moxifloxacin-resistant Mycobacterium tuberculosis NIH_G76MR assessed as inhibition of bacterial growth incubated for 2 weeks; conditions: 336 h
[39] = tested on: Mycobacterium tuberculosis; assay: Antitubercular activity against isoniazid/rifampicin/pyrazinamide/prothionamide/rifabutin/ofloxacin/moxifloxacin/levofloxacin-resistant Mycobacterium tuberculosis NIHB188 assessed as inhibition of bacterial growth incubated for 2 weeks; conditions: NIHB188, 336 h
[40] = tested on: Mycobacterium tuberculosis; assay: Antitubercular activity against isoniazid/rifampicin/ethambutol/pyrazinamide/prothionamide/ofloxacin/levofloxacin/rifabutin-resistant Mycobacterium tuberculosis NIHB270 assessed as inhibition of bacterial growth incubated for 2 weeks; conditions: NIHB270, 336 h
[41] = tested on: Mycobacterium tuberculosis; assay: Antitubercular activity against extensively drug-resistant Mycobacterium tuberculosis NIH1B178 assessed as inhibition of bacterial growth incubated for 2 weeks; conditions: NIH1B178, 336 h
[42] = tested on: Mycobacterium tuberculosis; assay: Antitubercular activity against extensively drug-resistant Mycobacterium tuberculosis NIH1B250 assessed as inhibition of bacterial growth incubated for 2 weeks; conditions: NIH1B250, 336 h
[43] = tested on: Mycobacterium tuberculosis; assay: Antitubercular activity against extensively drug-resistant Mycobacterium tuberculosis NIHB13 assessed as inhibition of bacterial growth incubated for 2 weeks; conditions: NIHB13, 336 h

Measured: MIC

O=C(C1CCN(c2nnc(-c3ccccc3)o2)CC1)N1CCC(Cc2ccccc2)CC1
2.3 µM: [17] | [28] | [42]
0.78 µM: [6] | [27] | [34] | [35] | [41] | [43]
1.2 µM: [2] | [8] | [10] | [11] | [12] | [29] | [30] | [38]
3.13 µM: [22] | [24] | [37]
4.7 µM: [15] | [18]
0.39 µM: [3] | [5] | [25] | [32] | [36]
0.6 µM: [1] | [4] | [13] | [26] | [39]
1.56 µM: all other assays above

COc1nc2ccc(Br)cc2cc1[C@@H](c1ccccc1)[C@@](O)(CCN(C)C)c1cccc2ccccc12 [BEDAQUILINE]
0.04 µM: [7] | [34] | [39]
< 0.02 µM: [15] | [24] | [37] | [38]
0.15 µM: [1] | [3] | [9] | [20]
0.07 µM: [8] | [17] | [18] | [23] | [31] | [40] | [42]
0.02 µM: [21] | [28]
0.3 µM: [35]
0.2 µM: [2] | [12] | [19]
0.05 µM: [6] | [25] | [26] | [27] | [32] | [41] | [43]
0.1 µM: all other assays above
